Measured values published in patent publication US20150087683A1, “TREATMENT METHOD FOR STEROID RESPONSIVE DERMATOSES” (GlaxoSmithKline Intellectual Property (No.2) Limited, priority 2012, published 2015).
Several values for one entry are separate records, joined by “and”; a condition that tells them apart may be missing. Identical values can stand only once.

Experiments:
primary keratinocytes = assay: CMap analysis using psoriasis disease signature against mRNA expression profiles of compound-treated primary keratinocytes (Assay #2); format: cell-based, human; conditions: for Ks down / Ks up / Raw Score / Scale Score: Keratinocyte
Description: The general procedure of Assay #1 was repeated with Compound C with substitution of primary keratinocytes. Primary keratinocytes were purchased from Zen-Bio, Inc. and grown in Zen-Bio, Inc. human adult keratinocyte growth medium (cat# KM-2).
Following the general procedure of Assay #1 for Day 1, keratinocytes plated on T225 flasks were trypsinized and resuspended in 17.4 mL of KM-2 medium. The cells were then seeded in the 6-well plates with 0.5×10^6 cells per well in a total 4 mL KM-2 medium.
Following the general procedure of Assay #1 for Day 2, keratinocytes were treated with the compound at the final concentrations of 1 uM and 10 uM for 6 hours. KM-2 medium containing test compound is aspirated from the cell monolayer. 350 ul of RLT buffer is added per well, the contents in each well were scraped and transferred to an appropriately labeled microfuge tube. Samples were frozen and stored at −80 C.
The subsequent sample processing, RNA purification and hybridization to the chips for microarray experiments were conducted by Expression Analysis, Inc. Durham N.C. (EA).

MCF7 cells = assay: CMap analysis using psoriasis disease signature against mRNA expression profiles of compound-treated MCF7 cells (Assay #1); format: cell-based, human
Description: A general overview of the experimental protocol is indicated below.
The flask is incubated at 37 C for ˜2 minutes to dissociate the cells. • The dissociated cells are harvested with culture media, ˜10 ml/flask. • The harvested cell suspensions are pooled and re-suspended to ensure a homogenous suspension. • The suspension is divided into approximately 1e10̂6 cells per well. • The cells are spun down and re-suspended in fresh culture media to 1e10̂6 cells/2 mL media. • 2 ml of the adjusted cell suspension is dispensed into each well of 6-well plates. • The 6-well plates are incubated overnight at approximately 37 C: 5% CO2.
• An assay block, containing 3 ul 10 mM compound (small molecule)/well, is allowed to return to room temperature. • Culture media is warmed to 37 C. • 600 ul culture media is added to each well of assay block (containing 3 ul 10 mM compound). (=200× dilution) • Intermediate dilution is then 50 uM. • 500 ul of the intermediate dilution is transferred directly on to cells in 6-wells plated (in 2 ml) from previous day. (=5× dilution) • Cells then have 2.5 ml media on them. Final compound concentration is then 10 uM, final DMSO concentration is then 0.1%. • Treated cells are then returned to the incubator and treatment time is noted. • By way of example, if the final treatment concentration is to be something other than 10 uM, the stock should be adjusted first in DMSO so that the […] dilution still delivers 0.1% DMSO final.
• Fresh RLT buffer (QIAGEN)+2-Me is prepared. • After 6 hours of treatment, the 6-well plates are removed from incubator. • The test compound is aspirated from the cell monolayer. • 350 ul of RLT buffer is added per well. • Cells are scraped and the contents of each well is transferred to an appropriately labeled microfuge tube. • Freeze and store the samples at −80 C.
Frozen samples were shipped to Expression Analysis, Inc. Durham N.C. (EA) to generate RNA profiling data. To generate whole genome RNA expression profiles, samples were processed for RNA purification and hybridization to IllumanHT-12-V4 Expression BeadChips.
The significance of particular set of compound instance(s) of interest is estimated by permutation pvalue.

plaques of psoriasis = assay: Clinical result: psoriasis plaques in a patient of cancer trial PCS113124; format: in vivo; conditions: human, patient 1200
Source text: Compound C was in human clinical trials for the treatment of cancer.

## Cn1ncc(Cl)c1-c1cc(C(=O)N[C@H](CN)Cc2ccc(F)c(F)c2)oc1Cl [Compound C, N-{(1S)-2-amino-1-[(3,4-difluorophenyl)methyl]ethyl}-5-chloro-4-(4-chloro-1-methyl-1H-pyrazol-5-yl)-2-furancarboxamide]
Primary keratinocytes; 1 uM, Day 1
  Ks down: 0.112
  Ks up: −0.22
  Raw Score: −0.3324
  Scale Score: −0.6723
Primary keratinocytes; 1 uM, Day 2
  Ks down: 0.172
  Ks up: −0.248
  Raw Score: −0.4204
  Scale Score: −0.8504
Primary keratinocytes; 1 uM, Day 3
  Ks down: 0.124
  Ks up: −0.139
  Raw Score: −0.2625
  Scale Score: −0.5309
Primary keratinocytes; 10 uM, Day 1
  Ks down: 0.112
  Ks up: −0.213
  Raw Score: −0.3251
  Scale Score: −0.6576
Primary keratinocytes; 10 uM, Day 2
  Ks down: 0.115
  Ks up: −0.296
  Raw Score: −0.4104
  Scale Score: −0.8302
Primary keratinocytes; 10 uM, Day 3
  Ks down: 0.114
  Ks up: −0.241
  Raw Score: −0.3551
  Scale Score: −0.7182
Primary keratinocytes; primary keratinocytes
  gene expression changes versus gene expression changes observed in psoriasis: negatively correlated
MCF7 cells; MCF7, 10 uM, 6 hours treatment
  Enrichment Score: −0.8835
  Mean CMap Score: −0.1867
MCF7 cells; MCF7, 10 uM, 6 hours treatment, individual instance scores
  CMap Score Distribution: (−0.17 −0.17 and −0.21)
MCF7 cells; MCF7 cells
  gene expression changes versus gene expression changes observed in psoriasis: negatively correlated
Plaques of psoriasis
  course of mild plaques of psoriasis during treatment: generally got better and even disappeared at times
